According to article PMC9658513, “Discovery of Compounds That Selectively Repress the Amyloidogenic Processing of the Amyloid Precursor Protein: Design, Synthesis and Pharmacological Evaluation of Diphenylpyrazoles” (International Journal of Molecular Sciences, 2022):

How the values were obtained:
SY5Y-APP^695WT cells = test: in vitro; type: cell-based, human
Procedure, shortened: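 Cells seeded at 3 × 10^4 per well, attached 24 h, then exposed to drug for 72 h in DMEM with 10% SVF. Viability by MTS colorimetric assay, absorbance at 490 nm.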

sAPPα = sAPPα secretion (MSD sAPPα/sAPPβ Multiplex Kit); type: cell-based, human; details: concentration increasing sAPPα 1.5-fold vs untreated control
Procedure: A selection of compounds with several selected activities was performed including sAPPα and sAPPβ, which were further explored. […] The decrease in Aβ could result from a decrease in either β- or γ-secretase cleavage or an increase in the α-secretase cleavage of APP. Thus, medium concentrations of sAPPβ and sAPPα, which are the β- and α-secretase extramembrane shed APP fragments, were determined after cell drug treatments.
The human neuroblastoma cell line SY5Y-APP^695WT was maintained in Dulbecco’s modified Eagle medium (DMEM, high glucose, pyruvate—GIBCO, Life Technologies, Carlsbad, CA, USA) supplemented with 10% fetal bovine serum, 2 mM L-glutamine, 1 mM non-essential amino acids and penicillin/streptomycin (GIBCO, Life Technologies, Carlsbad, CA, USA) at 37 °C in a 5% CO2 humidified incubator [36]. For compound treatment, a 10 mM stock solution was diluted in freshly supplemented DMEM medium to obtain the precise final concentration of the drug. Cells were plated at a density of 5 × 10^5 cells per well into 12-well plates and cultured with 1 mL supplemented DMEM cell medium for 24 h before compound exposure. The following day, the cell medium was replaced with fresh medium containing the compounds diluted at the indicated concentrations. Cells were treated for 24 h. At the end of the treatments, the cell medium was collected and kept at −80 °C until use, cells were rinsed once with PBS and extracted in 100 µL of Laemmli buffer (10 mM Tris, 20% glycerol, and 2% sodium dodecyl sulfate) using a cell-scraper. […] Total protein concentration was determined using the Pierce BCA Protein Assay Kit (Thermo Scientific, Waltham, MA, USA) according to the manufacturer’s instructions. […]
Aβ1–40/Aβ1–42 peptides, Aβx–38/Aβx–40/Aβx–42, and sAPPα/sAPPβ concentrations in pg/mL were determined, respectively, using amyloid-beta 40 and 42 Human ELISA Kits (Invitrogen), the V-PLEX Plus Aβ Peptide Panel 1 (4G8) Kit (Meso Scale Diagnostics, MSD R©, Rockville, MD, USA), and the sAPPα/sAPPβ Multiplex Kit (Meso Scale Diagnostics, MSD R©, Rockville, MD, USA) according to the manufacturer’s instructions.

Question: For “N′-[[4-[4-[3-(Dimethylamino)propyl]-3-[4-[3-(dimethylamino)propyl]phenyl] Pyrazol-1-yl]phenyl]methyl]-N,N,N′-trimethyl-propane-1,3-diamine [Compound 33]”, which CC50 (SY5Y-APP^695WT cells) is on record?
Answer: > 100 µM

Question: What about the “Cytotox. CC50” value (SY5Y-APP^695WT cells) of the same substance?
Answer: 100 µM

Question: What about the “sAPPα C1.5” value (sAPPα) of the same substance?
Answer: >10 µM
